# Laboratory results taken from ChEMBL document CHEMBL1909046, “DrugMatrix in vitro pharmacology data”.
# Columns and labels:
# [1] = DRUGMATRIX: Tumor Necrosis Factor (TNF), Non-Selective radioligand binding (ligand: [125I] TNF-alpha); assay type: cell membranes, Membrane; conditions: u-937; Not Active = under 50% inhibition at 10 µM
# Vasopressin V1a receptor = Vasopressin V1a receptor (Homo sapiens, UniProt P37288); assay type: cell membranes, Membrane; conditions: hek293; note: in other assays of this panel Not Active means under 50% inhibition at 10 µM
# [2] = DRUGMATRIX: Calcium Channel Type L, Phenylalkylamine radioligand binding (ligand: [3H] (-)-Desmethoxyverapamil (D-888)); assay type: cell membranes, Rattus norvegicus, Wistar, Brain, Membrane; conditions: Not Active = under 50% inhibition at 10 µM
# Insulin receptor = Insulin receptor (Rattus norvegicus, UniProt P15127); assay type: cell membranes, Wistar, Liver, Membrane; note: in other assays of this panel Not Active means under 50% inhibition at 10 µM
# Melanocortin receptor 5 = Melanocortin receptor 5 (Homo sapiens, UniProt P33032); assay type: cell membranes, HEK293, Membrane; note: in other assays of this panel Not Active means under 50% inhibition at 10 µM
# [3] = target: T1, Amine oxidase [flavin-containing] A (Homo sapiens, UniProt P21397); test: DRUGMATRIX: Monoamine Oxidase MAO-A enzyme inhibition (substrate: Kynuramine); parameters: species or system BTI-TN-5B1-4; conditions: Not Active = under 50% inhibition at 10 µM
# T1 sequence (P21397 whole entry): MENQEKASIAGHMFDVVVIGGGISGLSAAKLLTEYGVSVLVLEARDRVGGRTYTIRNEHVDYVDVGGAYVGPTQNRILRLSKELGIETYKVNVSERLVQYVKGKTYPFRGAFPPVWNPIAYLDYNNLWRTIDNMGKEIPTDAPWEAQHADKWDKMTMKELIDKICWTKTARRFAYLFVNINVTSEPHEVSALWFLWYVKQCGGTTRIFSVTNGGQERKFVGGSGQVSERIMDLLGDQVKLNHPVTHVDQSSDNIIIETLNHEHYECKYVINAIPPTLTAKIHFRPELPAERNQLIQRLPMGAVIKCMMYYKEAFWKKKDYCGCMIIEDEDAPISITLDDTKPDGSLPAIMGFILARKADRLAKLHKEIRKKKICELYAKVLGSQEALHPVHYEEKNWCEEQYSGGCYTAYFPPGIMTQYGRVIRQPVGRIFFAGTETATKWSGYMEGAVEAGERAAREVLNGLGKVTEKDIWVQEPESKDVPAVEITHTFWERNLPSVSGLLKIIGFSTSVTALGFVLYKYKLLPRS
# Sequence of Melanocortin receptor 5 (P33032 whole entry): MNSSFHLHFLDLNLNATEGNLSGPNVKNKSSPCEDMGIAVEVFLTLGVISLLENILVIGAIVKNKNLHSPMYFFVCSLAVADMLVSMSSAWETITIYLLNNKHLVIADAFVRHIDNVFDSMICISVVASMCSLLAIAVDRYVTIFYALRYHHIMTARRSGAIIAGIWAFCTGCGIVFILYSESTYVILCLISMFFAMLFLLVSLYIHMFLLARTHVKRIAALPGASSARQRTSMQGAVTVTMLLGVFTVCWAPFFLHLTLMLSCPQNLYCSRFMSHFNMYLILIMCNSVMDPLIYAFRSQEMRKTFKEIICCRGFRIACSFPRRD
# Sequence of Insulin receptor (P15127 27-759 limits assumed): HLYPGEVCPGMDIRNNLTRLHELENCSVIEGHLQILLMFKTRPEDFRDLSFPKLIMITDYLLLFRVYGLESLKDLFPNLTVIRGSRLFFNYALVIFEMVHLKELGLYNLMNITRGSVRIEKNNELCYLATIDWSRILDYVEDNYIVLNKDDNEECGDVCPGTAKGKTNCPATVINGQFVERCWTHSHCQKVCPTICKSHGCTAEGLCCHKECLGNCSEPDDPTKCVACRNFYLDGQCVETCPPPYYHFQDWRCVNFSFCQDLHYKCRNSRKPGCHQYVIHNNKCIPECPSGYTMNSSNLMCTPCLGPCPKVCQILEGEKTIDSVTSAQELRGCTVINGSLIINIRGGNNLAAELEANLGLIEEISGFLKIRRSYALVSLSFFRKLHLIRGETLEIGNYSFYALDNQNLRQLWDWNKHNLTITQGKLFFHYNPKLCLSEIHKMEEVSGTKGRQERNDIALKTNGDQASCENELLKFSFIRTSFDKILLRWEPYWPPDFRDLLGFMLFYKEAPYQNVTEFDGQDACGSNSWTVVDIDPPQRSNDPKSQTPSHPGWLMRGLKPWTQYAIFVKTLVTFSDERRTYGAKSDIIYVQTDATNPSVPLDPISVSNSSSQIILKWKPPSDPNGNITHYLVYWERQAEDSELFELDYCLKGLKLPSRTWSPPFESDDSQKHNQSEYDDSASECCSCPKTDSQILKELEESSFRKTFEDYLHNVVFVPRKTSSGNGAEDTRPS
# Sequence of Insulin receptor (P15127 764-1383 limits assumed): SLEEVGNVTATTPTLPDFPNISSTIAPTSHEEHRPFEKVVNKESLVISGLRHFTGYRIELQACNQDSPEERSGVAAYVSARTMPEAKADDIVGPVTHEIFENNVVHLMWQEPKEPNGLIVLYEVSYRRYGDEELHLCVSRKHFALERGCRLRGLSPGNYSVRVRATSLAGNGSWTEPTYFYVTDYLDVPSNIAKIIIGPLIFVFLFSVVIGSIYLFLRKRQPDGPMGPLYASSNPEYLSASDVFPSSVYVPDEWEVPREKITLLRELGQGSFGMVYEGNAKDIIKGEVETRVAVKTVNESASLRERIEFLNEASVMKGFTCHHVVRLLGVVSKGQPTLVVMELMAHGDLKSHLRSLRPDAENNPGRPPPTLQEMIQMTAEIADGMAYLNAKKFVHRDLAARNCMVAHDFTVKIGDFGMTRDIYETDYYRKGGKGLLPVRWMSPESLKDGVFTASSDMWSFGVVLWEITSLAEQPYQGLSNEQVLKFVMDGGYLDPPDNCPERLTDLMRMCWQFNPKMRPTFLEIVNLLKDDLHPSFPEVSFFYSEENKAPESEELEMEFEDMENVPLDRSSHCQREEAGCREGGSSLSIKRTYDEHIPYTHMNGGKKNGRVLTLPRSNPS
# Sequence of Vasopressin V1a receptor (P37288 whole entry): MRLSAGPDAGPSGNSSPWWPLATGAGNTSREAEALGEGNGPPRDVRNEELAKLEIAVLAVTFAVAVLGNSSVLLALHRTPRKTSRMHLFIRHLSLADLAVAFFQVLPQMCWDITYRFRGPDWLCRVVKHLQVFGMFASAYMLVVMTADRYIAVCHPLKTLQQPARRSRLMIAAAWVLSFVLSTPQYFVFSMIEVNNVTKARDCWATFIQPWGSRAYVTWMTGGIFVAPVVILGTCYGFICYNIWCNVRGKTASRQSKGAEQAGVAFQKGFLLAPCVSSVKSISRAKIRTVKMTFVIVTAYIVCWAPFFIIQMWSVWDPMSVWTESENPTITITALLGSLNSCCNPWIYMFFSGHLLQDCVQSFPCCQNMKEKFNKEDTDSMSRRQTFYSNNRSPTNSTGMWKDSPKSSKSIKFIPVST
Compound,IC50 [1],Ki [1],IC50 (Vasopressin V1a receptor),IC50 [2],Ki [2],IC50 (Insulin receptor),IC50 (Melanocortin receptor 5; hek293),IC50 ([3]; bti-tn-5b1-4),IC50 ([3]; read-out: IC50) [nM],IC50 (Melanocortin receptor 5; read-out: IC50) [nM],Ki (Melanocortin receptor 5; read-out: Ki) [nM],IC50 ([2]; read-out: IC50) [nM],Ki ([2]; read-out: Ki) [nM],Ki (Vasopressin V1a receptor),Ki (Insulin receptor),Ki (Melanocortin receptor 5; hek293),Ki ([3]; bti-tn-5b1-4),"IC50 (Melanocortin receptor 5; hek293, read-out: IC50) [nM]","Ki (Melanocortin receptor 5; hek293, read-out: Ki) [nM]"
O=C(N/N=C/c1ccc([N+](=O)[O-])o1)c1cc([N+](=O)[O-])cc([N+](=O)[O-])c1O [NIFURSOL],Not Active,Not Active,Not Active,Not Active,Not Active,Not Active,Not Active,Not Active,–,–,–,–,–,–,–,–,–,–,–
COC(=O)Nc1nc2ccc(C(=O)c3cccs3)cc2[nH]1 [NOCODAZOLE],Not Active,Not Active,Not Active,Not Active,Not Active,Not Active,Not Active,–,24100,–,–,–,–,–,–,–,–,–,–
C#CC1(O)CC[C@H]2[C@@H]3CCC4=CC(=O)CC[C@@H]4[C@H]3CC[C@@]21CC (stereo not given in full) [NORGESTREL],Not Active,Not Active,Not Active,Not Active,Not Active,Not Active,Not Active,Not Active,–,–,–,–,–,–,–,–,–,–,–
COC(=O)Nc1nc2ccc([S+]([O-])c3ccccc3)cc2[nH]1 (stereo not given) [OXFENDAZOLE],Not Active,Not Active,Not Active,Not Active,Not Active,Not Active,Not Active,Not Active,–,–,–,–,–,–,–,–,–,–,–
CC(=O)O[C@H]1C(=O)[C@@]2(C)[C@H]([C@H](OC(=O)c3ccccc3)[C@]3(O)C[C@H](OC(=O)[C@H](O)[C@@H](NC(=O)c4ccccc4)c4ccccc4)C(C)=C1C3(C)C)[C@]1(OC(C)=O)CO[C@@H]1C[C@@H]2O [PACLITAXEL],Not Active,Not Active,Not Active,Not Active,Not Active,Not Active,–,Not Active,–,17100,16100,–,–,–,–,–,–,–,–
C[n+]1ccc(-c2cc[n+](C)cc2)cc1.[Cl-].[Cl-] [PARAQUAT DICHLORIDE],Not Active,Not Active,Not Active,Not Active,Not Active,Not Active,Not Active,Not Active,–,–,–,–,–,–,–,–,–,–,–
CC(C)NCC(O)COc1cccc2[nH]ccc12 (stereo not given) [PINDOLOL],Not Active,Not Active,Not Active,Not Active,Not Active,Not Active,Not Active,Not Active,–,–,–,–,–,–,–,–,–,–,–
CCn1cc(C(=O)O)c(=O)c2cnc(N3CCCC3)nc21 [PIROMIDIC ACID],Not Active,Not Active,Not Active,Not Active,Not Active,Not Active,Not Active,Not Active,–,–,–,–,–,–,–,–,–,–,–
C[n+]1ccccc1/C=N/O.[Cl-] [PRALIDOXIME CHLORIDE],Not Active,Not Active,Not Active,Not Active,Not Active,Not Active,Not Active,Not Active,–,–,–,–,–,–,–,–,–,–,–
COc1cc2nc(N3CCN(C(=O)c4ccco4)CC3)nc(N)c2cc1OC [PRAZOSIN],Not Active,Not Active,Not Active,Not Active,Not Active,Not Active,Not Active,Not Active,–,–,–,–,–,–,–,–,–,–,–
C[C@]12C=CC(=O)C=C1CC[C@@H]1[C@@H]2[C@@H](O)C[C@@]2(C)[C@H]1CC[C@]2(O)C(=O)CO [PREDNISOLONE],Not Active,Not Active,Not Active,Not Active,Not Active,Not Active,Not Active,Not Active,–,–,–,–,–,–,–,–,–,–,–
CC(=O)[C@H]1[C@H](C#N)C[C@H]2[C@@H]3CC=C4C[C@@H](O)CC[C@]4(C)[C@H]3CC[C@@]21C [PREGNENOLONE CARBONITRILE],Not Active,Not Active,Not Active,Not Active,Not Active,Not Active,Not Active,Not Active,–,–,–,–,–,–,–,–,–,–,–
CCCN(CCC)S(=O)(=O)c1ccc(C(=O)O)cc1 [PROBENECID],Not Active,Not Active,Not Active,Not Active,Not Active,Not Active,Not Active,Not Active,–,–,–,–,–,–,–,–,–,–,–
CCCNCC(O)COc1ccccc1C(=O)CCc1ccccc1 (stereo not given) [PROPAFENONE],Not Active,Not Active,Not Active,–,–,Not Active,Not Active,Not Active,–,–,–,1740,1700,–,–,–,–,–,–
CCCOc1ccc(C(=O)OCCN(CC)CC)cc1N [PROPARACAINE],Not Active,Not Active,Not Active,Not Active,Not Active,Not Active,Not Active,–,1780,–,–,–,–,–,–,–,–,–,–
CC(C)c1cccc(C(C)C)c1O [PROPOFOL],Not Active,Not Active,Not Active,Not Active,Not Active,Not Active,Not Active,Not Active,–,–,–,–,–,–,–,–,–,–,–
C[C@@H]1O[C@@H](O[C@@H]2C=C3CC[C@@H]4[C@H](CC[C@]5(C)[C@@H](c6ccc(=O)oc6)CC[C@]45O)[C@@]3(C)CC2)[C@H](O)[C@H](O)[C@H]1O [PROSCILLARIDIN],Not Active,Not Active,Not Active,Not Active,Not Active,Not Active,Not Active,Not Active,–,–,–,–,–,–,–,–,–,–,–
Oc1cccc(O)c1O [PYROGALLOL],Not Active,Not Active,Not Active,Not Active,Not Active,Not Active,Not Active,Not Active,–,–,–,–,–,–,–,–,–,–,–
AURANOFIN,Not Active,Not Active,Not Active,Not Active,Not Active,Not Active,Not Active,Not Active,–,–,–,–,–,Not Active,Not Active,Not Active,Not Active,–,–
GADOPENTETATE DIMEGLUMINE,Not Active,Not Active,Not Active,Not Active,Not Active,Not Active,Not Active,Not Active,–,–,–,–,–,Not Active,Not Active,Not Active,Not Active,–,–
GENTAMICIN,Not Active,Not Active,Not Active,Not Active,Not Active,Not Active,Not Active,Not Active,–,–,–,–,–,Not Active,Not Active,Not Active,Not Active,–,–
GRAMICIDIN,Not Active,Not Active,Not Active,Not Active,Not Active,Not Active,–,Not Active,–,–,–,–,–,Not Active,Not Active,–,Not Active,2010,1890
NYSTATIN,Not Active,Not Active,Not Active,Not Active,Not Active,Not Active,Not Active,Not Active,–,–,–,–,–,Not Active,Not Active,Not Active,Not Active,–,–
